Patent US20200100497A1, “SAFENERS AND FORMULATIONS CONTAINING SAFENERS, BIOCIDES AND INOCULANTS” (Bayer CropScience LP, priority 2017, published 2020)

Tests used:
[1] = C-13 NMR stability of the formaldehyde/sodium bisulfite/N,N-dimethylamine adduct in aqueous solution; type: physicochemical; details: room temperature; for Conversion of N,N-dimethyl adduct back to formaldehyde bisulfite adduct: 18 days
Procedure: In a small vial, 137 mg of formaldehyde sodium bisulfite (CAS 870-72-4) was combined with 10 mL of high purity water and 200 mg of N,N-dimethylamine and stirred at room temperature to mix. The resulting mixture was stored at room temperature.
Aliquots of the mixture was analysed by C-13 NMR spectral analysis 48 hours and 18 days following formation.

[2] = Stability of CropStar formulation and thiodicarb in presence of sodium bisulfite, Example 1; type: physicochemical
Procedure: Sodium bisulfite was added to CropStar® (150 g/L imidacloprid+450 g/L thiodicarb; Bayer CropScience) in various mole ratios to formaldehyde (0.5:1, 1:1, 2:1, and 5:1) with or without pH adjustment to pH 7. Efficacy of sodium bisulfite was compared to no safener (Sample Nos. 1 & 5), two comparative safeners (Safener 1 & Safener 2), and inoculum only (BIAGRO Liquido NG—liquid inoculant and BIAGRO 10 Plus—peat-based inoculant). Safener 1 was obtained from Novozymes and contains the following active ingredients: soybean oil (CAS #8001-22-7), hydrolysed starch syrups (CAS #8029-43-4), and yeast extract (CAS #8013-01-2). Safener 2 was provided by Biagro and contains the following active ingredients: yeast extract, K2HPO4, and milk powder.

CN(C)CS(=O)(=O)O [N,N-dimethyl adduct (CAS 68507-34-6), 1-(dimethylamino)-methanesulfonic acid]
Conversion of N,N-dimethyl adduct back to formaldehyde bisulfite adduct [1]: approximately 3.5%
Conversion of N,N-dimethyl adduct back to formaldehyde bisulfite adduct ([1]; listed as N,N-dimethylamine product): 3.5%
Time for which adduct is stable / takes to reverse back to formaldehyde bisulfite adduct [1]: > 18 days

O=S([O-])O.[Na+] [sodium bisulfite]
Degradation of thiodicarb ([2]; 1:1 mole ratio of sodium bisulfite to formaldehyde in CropStar): did not significantly degrade thiodicarb
Physical stability of the CropStar formulation ([2]; sodium bisulfite added to CropStar): without affecting the physical stability of the formulation
